In patent US20220127255A1, “HERBICIDAL COMPOUNDS” (SYNGENTA CROP PROTECTION AG, priority 2019, published 2022):
Counter-ions that a name gives are not always drawn. Like-named read-outs stand apart in the source and are kept apart here.

Legend:
Assay in all cases: Post-emergence efficacy, glasshouse spray test
Type in all cases: in vivo
[1] = system: Lolium perenne (LOLPE); conditions: 312 h, read-out: Control of weed species LOLPE after post-emergence application (100=total damage to plant; 0=no damage to plant)
Protocol: (§1) Seeds of a variety of test species were sown in standard soil in pots. After cultivation for 14 days (post-emergence) under controlled conditions in a glasshouse (at 24/16° C., day/night; 14 hours light; 65% humidity), the plants were sprayed with an aqueous spray solution derived from the dissolution of the technical active ingredient formula (I) in a small amount of acetone and a special solvent and emulsifier mixture referred to as IF50 (11.12% Emulsogen EL360 TM+44.44% N-methylpyrrolidone+44.44% Dowanol DPM glycol ether), to create a 50 g/l solution which was then diluted to required concentration using 0.25% or 1% Empicol ESC70 (Sodium lauryl ether sulphate)+1% ammonium sulphate as diluent.
(§2) The test plants were then grown in a glasshouse under controlled conditions (at 24/16° C., day/night; 14 hours light; 65% humidity) and watered twice daily. After 13 days the test was evaluated (100=total damage to plant; 0=no damage to plant).
(§3) Ipomoea hederacea (IPOHE), Euphorbia heterophylla (EPHHL), Chenopodium album (CHEAL), Amaranthus palmeri (AMAPA), Lolium perenne (LOLPE), Digitaria sanguinalis (DIGSA), Eleusine indica (ELEIN), Echinochloa crus-galli (ECHCG), Setaria faberi (SETFA)

[2] = system: Euphorbia heterophylla (EPHHL); conditions: 312 h, read-out: Control of weed species EPHHL after post-emergence application (100=total damage to plant; 0=no damage to plant)
Protocol: as §1, §2, §3

[3] = system: Amaranthus palmeri (AMAPA); conditions: 312 h, read-out: Control of weed species AMAPA after post-emergence application (100=total damage to plant; 0=no damage to plant)
Protocol: as §1, §2, §3

[4] = system: Ipomoea hederacea (IPOHE); conditions: 312 h, read-out: Control of weed species IPOHE after post-emergence application (100=total damage to plant; 0=no damage to plant)
Protocol: as §1, §2, §3

[5] = system: Setaria faberi (SETFA); conditions: 312 h, read-out: Control of weed species SETFA after post-emergence application (100=total damage to plant; 0=no damage to plant)
Protocol: as §1, §2, §3

[6] = system: Digitaria sanguinalis (DIGSA); conditions: 312 h, read-out: Control of weed species DIGSA after post-emergence application (100=total damage to plant; 0=no damage to plant)
Protocol: as §1, §2, §3

[7] = system: Echinochloa crus-galli (ECHCG); conditions: 312 h, read-out: Control of weed species ECHCG after post-emergence application (100=total damage to plant; 0=no damage to plant)
Protocol: as §1, §2, §3

[8] = system: Chenopodium album (CHEAL); conditions: 312 h, read-out: Control of weed species CHEAL after post-emergence application (100=total damage to plant; 0=no damage to plant)
Protocol: as §1, §2, §3

[9] = system: Eleusine indica (ELEIN); conditions: 312 h, read-out: Control of weed species ELEIN after post-emergence application (100=total damage to plant; 0=no damage to plant)
Protocol: as §1, §2, §3

[10] = 500 g/Ha, evaluated after 13 days
[11] = 130 g/Ha, evaluated after 13 days

Row | SMILES | pest or weed control at 500 g/ha [1, 10] | pest or weed control at 500 g/ha [2, 10] | pest or weed control at 500 g/ha [3, 10] | pest or weed control at 500 g/ha [4, 10] | pest or weed control at 500 g/ha [5, 10] | pest or weed control at 500 g/ha [6, 10] | pest or weed control at 500 g/ha [7, 10] | pest or weed control at 500 g/ha [8, 10] | pest or weed control at 500 g/ha [9, 10] | further results
1 | O=C1NC(=O)C(CC[n+]2ccc(-c3ncccn3)cn2)S1 (stereo not drawn) [Compound A1, 5-[2-(4-pyrimidin-2-ylpyridazin-1-ium-1-yl)ethyl]thiazolidine-2,4-dione trifluoroacetate] | – | – | – | – | – | – | – | – | – | pest or weed control at 500 g/ha [1]: 40%; pest or weed control at 500 g/ha [2]: 50%; pest or weed control at 500 g/ha [3]: 90%; pest or weed control at 500 g/ha [4]: 50%; pest or weed control at 500 g/ha [5]: 60%; pest or weed control at 500 g/ha [6]: 60%; pest or weed control at 500 g/ha [7]: 50%; pest or weed control at 500 g/ha [8]: 30%; pest or weed control at 500 g/ha [9]: 70%
2 | O=C(C[n+]1ccc(-c2ncccn2)cn1)Nc1nncs1 [Compound A5] | 0% | 20% | 100% | 20% | 20% | 70% | 50% | 30% | 70% | –
3 | O=S(=O)(CC[n+]1ccc(-c2ncccn2)cn1)c1cnn[nH]1 [Compound A8, 4-pyrimidin-2-yl-1-[2-(1H-triazol-5-ylsulfonyl)ethyl]pyridazin-1-ium 2,2,2-trifluoroacetate] | – | – | – | – | – | – | – | – | – | pest or weed control at 130 g/ha [1, 11]: 0%; pest or weed control at 130 g/ha [2, 11]: 70%; pest or weed control at 130 g/ha [3, 11]: 60%; pest or weed control at 130 g/ha [4, 11]: 20%; pest or weed control at 130 g/ha [5, 11]: 50%; pest or weed control at 130 g/ha [7, 11]: 40%; pest or weed control at 130 g/ha [8, 11]: 0%; pest or weed control at 130 g/ha [9, 11]: 50%
4 | O=C(C[n+]1ccc(-c2ncccn2)cn1)Nc1nnn[n-]1 [Compound A7] | 10% | 30% | 90% | 30% | 50% | 30% | 20% | 90% | 30% | –
5 | Cc1nnc(NC(=O)C[n+]2ccc(-c3ncccn3)cn2)s1 [Compound A3] | 0% | – | 50% | – | 0% | 0% | 10% | 30% | 0% | –
6 | Oc1cc(C[n+]2ccc(-c3ncccn3)cn2)on1 [Compound A9, 5-[(4-pyrimidin-2-ylpyridazin-1-ium-1-yl)methyl]isoxazol-3-ol 2,2,2-trifluoroacetate] | 10% | 30% | 20% | 20% | 20% | 40% | 30% | 40% | 20% | –
7 | O=C(C[n+]1ccc(-c2ncccn2)cn1)Nc1nccs1 [Compound A4] | 0% | 100% | 70% | 10% | 20% | 10% | 0% | 60% | 80% | –
8 | Cn1nnnc1NC(=O)C[n+]1ccc(-c2ncccn2)cn1 [Compound A6] | 0% | 80% | 90% | 40% | 30% | 30% | 30% | 90% | 20% | –
9 | Cc1cc(O)c(C(=O)C[n+]2ccc(-c3ncccn3)cn2)c(=O)o1 [Compound A2, 4-hydroxy-6-methyl-3-[2-(4-pyrimidin-2-ylpyridazin-1-ium-1-yl)acetyl]pyran-2-one trifluoroacetate] | 10% | 70% | 90% | 10% | 20% | 30% | 20% | 0% | 70% | –
